Measurements as given in US5734081A, “Arylthio compounds” (Warner-Lambert Company, priority 1995, dated 1998).

Assays:
Type in all cases: cell-based
[1] = tested on: HIV-1IIIb; assay: Anti-HIV activity, HIV-1IIIb in AA5 cells; settings: Human immunodeficiency virus 1; AA5, HIV-1IIIb
Experimental: (§1) The compounds of the invention were also evaluated against various other HIV strains and cell lines utilizing the assay methodology described above. The compounds were additionally evaluated against clinical isolates of HIV strains.

[2] = tested on: HIV-1IIIb; assay: Anti-HIV activity, HIV-1IIIb in MT-2 cells; settings: Human immunodeficiency virus 1, MT2; MT-2, HIV-1IIIb
Experimental: as §1

[3] = tested on: HIV-1VIHU; assay: Anti-HIV activity, clinical isolate HIV-1VIHU in PBL; settings: Human immunodeficiency virus 1
Experimental: as §1

[4] = tested on: HIV-1A17; assay: Anti-HIV activity, HIV-1A17 in MT-4 cells; settings: Human immunodeficiency virus 1, MT4
Experimental: as §1

[5] = tested on: HIV-1; assay: CEM cell assay, anti-HIV-1 activity; settings: Human immunodeficiency virus 1, CCRF-CEM, HIV-1, 6 or 7 days, read-out: EC50 (Effective Concentration which protects cells from viral cytopathic effects)
Procedure, shortened: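 CEM T4 lymphocytes infected with HIV at virus:cell ratio ~0.05, then treated with half-log10 dilutions of compound from DMSO stock and incubated 6 or 7 days at 37° in 5% CO2. Protection from virus-induced cell killing was read by XTT formazan absorbance and microscopy versus drug-treated noninfected cells and untreated controls.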

[6] = tested on: HIV-1WEIO; assay: Anti-HIV activity, clinical isolate HIV-1WEIO in PBL; settings: Human immunodeficiency virus 1
Experimental: as §1

[7] = tested on: SIV; assay: Antiviral activity, SIV in CEM cells; settings: Simian immunodeficiency virus, CCRF-CEM, read-out: EC50
[8] = tested on: HIV-1WOME; assay: Anti-HIV activity, clinical isolate HIV-1WOME in PBL; settings: Human immunodeficiency virus 1
Experimental: as §1

[9] = tested on: HIV-1N119; assay: Anti-HIV activity, HIV-1N119 in CEM cells; settings: Human immunodeficiency virus 1, CCRF-CEM
Experimental: (§2) Yet another test system employed to determine antiviral activity is called the CEM cell assay.
(§3) T4 lymphocytes (CEM cell line) are exposed to HIV at a virus to cell ratio approximately 0.05, and plated along with noninfected control cells in 96-well microliter plates.
(§4) The candidate agent is dissolved in dimethyl sulfoxide (unless otherwise noted), then diluted 1:200 in cell culture medium. Further dilutions (half-log10) are prepared before adding to an equal volume of medium containing either infected or noninfected cells. Cultures are incubated at 37° in a 5% carbon dioxide atmosphere for 6 or 7 days. The tetrazolium salt, XTT, is added to all wells, and cultures are incubated to allow formazan color development by viable cells (J. National Cancer Institute, 1989;81:577-586). Individual wells are analyzed spectrophotometrically to quantitate formazan production, and in addition are viewed microscopically for detection of viable cells confirmation of protective activity.
(§5) Drug-tested virus-infected cells are compared with drug-treated noninfected cells and with other appropriate controls (untreated infected and untreated noninfected cells, drug-contain wells without cells, etc.) on the same plate. Data are reviewed in comparison with other tests done at the same time and a determination about activity is made.
as §1

[10] = CEM cell growth inhibition (XTT, noninfected cells); settings: human, CEM Cell Assay, drug alone, read-out: IC50 (Inhibitory Concentration where drug alone inhibits cell growth)
Procedure, shortened: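 Uninfected CEM T4 lymphocytes were run alongside HIV-infected cultures. Compound in DMSO was diluted 1:200 in medium, then in half-log10 steps, and added to an equal volume of cells.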

[11] = H9 cell cytotoxicity (XTT assay, uninfected cells); settings: human, drug alone, read-out: IC50 (Inhibitory Concentration where drug alone inhibits cell growth)
Experimental: The H9 T-cell line is batch infected with HIV virus at an M0I of 0.01. After 2 hours absorption, the cells are washed, resuspended in RPMI-1640/10% fetal calf serum, and seeded at […] of a 96-well plate. A duplicate plate of uninfected H9 cells is prepared for the cytotoxicity assay. Drugs are serially diluted 1/3.16 in DMSO, transferred to media at an 8× concentration, and then added to the cultures in triplicate. The final DMSO concentration of 0.002 (0.2%).
Viral production is measured by RT assay and cytotoxicity is measured by XTT assay at 7 days post-infection. The RT assay is performed as a modification of Borroto-Esoda and Boone, J. Virol., 1991;65:1952-1959 and quantitated using a Molecular Dynamics Phosphoimager with Imagequant software. The XTT assay is performed as a modification of Roehm, et al., J. Immuno. Methods., 1991;142:257-265 and quantitated using a molecular Devices Thermomax plate reader with Softmax software.
Data is electronically transferred to a Microsoft Excell spreadsheet for analysis. The RT assay values equivalent to 50% and 90% inhibition of virus production are calculated from the untreated controls. The concentrations of inhibitor required to produce these values (IC50 and IC90) are interpolated from data points flanking these RT activities. The XTT assay values equivalent to 50% cytotoxicity are calculated from the untreated controls. The concentrations of inhibitor required to produce this value are interpolated from data points flanking these XTT values.

[12] = tested on: HIV-1IIIb; assay: Anti-HIV activity, HIV-1IIIb in CEM cells; settings: CEM, HIV-1IIIb, read-out: EC50
Experimental: as §2, §3, §4, §5, §1

[13] = tested on: HIV-1RF; assay: Anti-HIV activity, HIV-1RF in CEM cells; settings: Human immunodeficiency virus 1, CCRF-CEM; CEM, HIV-1RF; read-out: EC50
Experimental: as §2, §3, §4, §5, §1

[14] = tested on: HIV-1BAKI; assay: Anti-HIV activity, clinical isolate HIV-1BAKI in PBL
Experimental: as §1

[15] = tested on: HIV-2ROD; assay: Anti-HIV activity, HIV-2ROD in CEM cells; settings: Human immunodeficiency virus 2, CCRF-CEM; CEM, HIV-2ROD; read-out: EC50
Experimental: as §2, §3, §4, §5, §1

[16] = Human immunodeficiency virus 1, CCRF-CEM
[17] = Human immunodeficiency virus 1, PBL

Row | SMILES | EC50 [1] | EC50 [2] | EC50 [3] | EC50 [4] | EC50 [5] | EC50 [6] | EC50 [7] | EC50 [8] | EC50 [9] | CC50 [10] | CC50 at 168 h [11] | EC50 [12] | EC50 [12, 16] | EC50 [13] | EC50 [14, 17] | EC50 ([14]; PBL) | EC50 [15]
1 | NS(=O)(=O)c1ccc(NC(=O)c2ccccc2SSc2ccccc2C(=O)Nc2ccc(S(N)(=O)=O)cc2)cc1 [Example 1] | 900 nM | 2600 nM | 3600 nM | 600 nM | 2900 nM | 3500 nM | 14600 nM | 4000 nM | 2200 nM | > 120000 nM | 36000 nM | 4600 nM | 2800 nM | 2300 nM | 300 nM | 250 nM | 2600 nM
2 | CC(=O)Nc1ccc(SSc2ccc(NC(C)=O)cc2C(N)=O)c(C(N)=O)c1 [Example 9, 2,2'-Dithiobis(5-acetylamino)benzamide] | 3500 nM | 9400 nM | 5200 nM | 2400 nM | 5200 nM | 7500 nM | 2100 nM | 5700 nM | 2300 nM | > 120000 nM | > 100000 nM | – | 400 nM | 400 nM | 1800 nM | – | 1000 nM
